PubChem BioAssay (NCI)
In brackets after ≈: the same amount, converted by molar mass.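 Each compound was tested at five concentrations against cells in 96-well plates for 48 hours. GI50 = concentration required for 50% inhibition of growth. TGI marks complete inhibition of growth.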

How the values were obtained:
Assay in all cases: NCI-60 cell line screen, 48 h
A498 renal = tested on: A498 renal
CAKI-1 renal = tested on: CAKI-1 renal
CCRF-CEM leukemia = tested on: CCRF-CEM leukemia
HCT-15 colon = tested on: HCT-15 colon
HS 578T breast = tested on: HS 578T breast
OVCAR-5 ovarian = tested on: OVCAR-5 ovarian
SNB-19 CNS = tested on: SNB-19 CNS
SW-620 colon = tested on: SW-620 colon
MDA-MB-231 breast = tested on: MDA-MB-231 breast
SF-295 CNS = tested on: SF-295 CNS

Row | Compound | GI50 (A498 renal) [µM] | TGI (A498 renal) [µM] | GI50 (CAKI-1 renal) | TGI (CAKI-1 renal) | GI50 (CCRF-CEM leukemia) | TGI (CCRF-CEM leukemia) | GI50 (HCT-15 colon) | TGI (HCT-15 colon) | GI50 (HS 578T breast) | TGI (HS 578T breast) | GI50 (OVCAR-5 ovarian) | TGI (OVCAR-5 ovarian) | GI50 (SNB-19 CNS) | TGI (SNB-19 CNS) | GI50 (SW-620 colon) | TGI (SW-620 colon) | TGI (MDA-MB-231 breast) | TGI (SF-295 CNS) | GI50 (MDA-MB-231 breast) [µg/mL] | GI50 (SF-295 CNS) [µg/mL]
1 | c1ccc(-c2c(-c3ccccc3)[n+](Cc3ccc4ccccc4c3)c(-c3ccc(-c4nc5ccccc5s4)cc3)n2Cc2ccc3ccccc3c2)cc1 | 0.156 | 0.542 | 0.189 µM | 0.451 µM | 0.202 µM | > 41.5 µM | 0.335 µM | 1.13 µM | 0.296 µM | 1.41 µM | 0.311 µM | 1.17 µM | 0.0784 µM | 1.26 µM | 0.14 µM | 0.764 µM | – | – | – | –
2 | COC(=O)C(Cc1cn(C(C)n2cc(CC(NC(C)=O)C(=O)OC)c3ccccc32)c2ccccc12)NC(C)=O (configuration not stated) | – | > 100 | – | > 100 µM | – | > 100 µM | – | > 100 µM | – | > 100 µM | – | > 100 µM | – | > 100 µM | – | > 100 µM | > 100 µM | > 100 µM | – | –
3 | O=C1NN(C2=NNC3(C(=O)N2)c2ccccc2-c2ccccc23)C(c2ccccc2)=N/C1=C/c1ccc(Cl)cc1 | – | – | 74.4 µg/mL | > 150 µg/mL | 52.6 µg/mL | > 150 µg/mL | 54.1 µg/mL | > 150 µg/mL | 47.7 µg/mL | > 150 µg/mL | 132 µg/mL | > 150 µg/mL | 28.3 µg/mL | 59.9 µg/mL | 52.8 µg/mL | > 150 µg/mL | > 150 µg/mL | 73.9 µg/mL | 47.9 (≈ 87.8 µM) | 30.7 (≈ 56.3 µM)
4 | O=C(O)c1nc2ccc(C(F)(F)F)cc2[nH]c1=O | – | > 100 | – | > 100 µM | – | > 100 µM | – | > 100 µM | – | > 100 µM | – | > 100 µM | – | > 100 µM | – | > 100 µM | > 100 µM | > 100 µM | – | –
5 | CN(/N=C1\C(=O)Nc2ccccc21)c1ccccc1 | – | > 100 | – | > 100 µM | – | > 100 µM | – | > 100 µM | – | > 100 µM | – | > 100 µM | – | > 100 µM | – | > 100 µM | 62.5 µM | > 100 µM | – | –
6 | CN(C)CCNC(=O)c1cccc2c1Nc1ccccc1S2 | – | 24.5 | – | – | – | 28.1 µM | – | 31.4 µM | – | – | – | 26.3 µM | – | 24 µM | – | 30.8 µM | – | 27.7 µM | – | –
7 | CO/N=C1\CC(NC(=O)C(F)(F)F)c2ccsc21 (configuration not stated) | – | > 100 | – | > 100 µM | – | > 100 µM | – | > 100 µM | – | > 100 µM | – | > 100 µM | – | – | – | > 100 µM | > 100 µM | > 100 µM | – | –
8 | CC(=O)NNc1nc(C)c(C(=O)NNC(=O)C(=O)Nc2ccc([N+](=O)[O-])cc2[N+](=O)[O-])s1 | – | > 100 | – | > 100 µM | – | 79.6 µM | – | > 100 µM | – | – | – | > 100 µM | – | > 100 µM | – | > 100 µM | – | > 100 µM | – | –
9 | O=c1oc2ccccc2c(O)c1Cc1ccc(Cc2c(O)c3ccccc3oc2=O)cc1 | – | > 100 | – | > 100 µM | – | > 100 µM | – | > 100 µM | – | > 100 µM | – | > 100 µM | – | – | – | > 100 µM | > 100 µM | > 100 µM | – | –
